In brackets after ≈: the same amount, converted by molar mass. Where two headings read alike, the source gives them in different places. Residues, ends and D or L forms follow the SMILES beside them.
Experiments:
[1] = tested on: E. faecium BCRC 15B0132 (VRE); test: Time killing assay; format: cell-based, Enterococcus faecium; conditions: 5 × 10^5 CFU/mL, 1 × MIC, 0.5-24 h, 37 °C, triplicate
Protocol: (§1) The bactericidal activities of vancomycin, P-113, Phe-P-113, Bip-P-113, Dip-P-113, and Nal-P-113 against E. faecium BCRC 15B0132 (VRE) and E. coli ATCC 25922 were assessed by the time-kill analysis. The cells were grown overnight in TSB or MHB at 37 °C with shaking, and then fresh TSB or MHB was inoculated for growth to mid-logarithmic phase. Bacteria (5 × 10^5 CFU/mL) were treated with 1 × MIC vancomycin, P-113, Phe-P-113, Bip-P-113, Dip-P-113, and Nal-P-113 for 0.5, 1, 2, 4, 6, 10, and 24 h at 37 °C. Bacteria without peptides and vancomycin served as a control. Aliquots were removed at each time points, and 10-fold serial dilutions of the aliquot were plated onto the Müller-Hinton agar. The numbers of CFU were counted after 24 h of incubation at 37 °C. The detection limit for the colony counts was 2log10 CFU/mL.

[2] = tested on: Vancomycin-resistant S. aureus 01 (VRSA01); test: microbe, parasite or virus in culture; format: cell-based, Staphylococcus aureus; conditions: 16 h
Protocol: (§2) For the purpose of inducing vancomycin-resistant Staphylococcus aureus (VRSA), the VISA01, VISA02, and VISA03 bacteria were incubated overnight in culture medium, and transferring 50 µL of bacteria to 5 mL of fresh medium containing 2 μg/mL of vancomycin then incubated overnight. The bacteria were transferred to new tube with doubling vancomycin concentration and then incubated overnight again. The concentration of vancomycin during serial passage was 2, 4, 8, 16, and 32 µg/mL. The procedure was repeated until meeting the final concentration of 32 µg/mL. After serial passage, the cell resistance was confirmed by using an MIC assay.
(§3) The antibacterial activities of peptides were determined by the standard broth microdilution method according to the guidelines of the Clinical and Laboratory Standards Institute (CLSI). Briefly, E. coli ATCC 25922 were incubated in MHB, and E. faecium BCRC 15B0132, VISA and VRSA strains were incubated in TSB overnight at 37 °C. The cell cultures were regrown to the mid-log phase and subsequently diluted to a final concentration of 5 × 10^5 CFU/mL. The 1 µL peptides or antibiotic were loaded into each well at the final concentration of 64, 32, 16, 8, 4, 2, 1, and 0.5 µg/mL, then loaded 99 µL diluted microbes into each well of polypropylene 96-well plate. After 16 h of incubation at 37 °C, the turbidity at OD600 was measured by the microplate reader. The minimal inhibitory concentration (MIC) value was defined as the lowest concentration of peptide or antibiotic, which inhibited the 90% visible growth of bacteria. All experiments were repeated three times independently.

[3] = tested on: Vancomycin-resistant S. aureus 02 (VRSA02); test: microbe, parasite or virus in culture; format: cell-based, Staphylococcus aureus; conditions: 16 h
Protocol: as §2, §3

[4] = tested on: Vancomycin-resistant S. aureus 03 (VRSA03); test: microbe, parasite or virus in culture; format: cell-based, Staphylococcus aureus; conditions: 16 h
Protocol: as §2, §3

[5] = POPC:POPG (3:1, mol/mol) and POPC:LPS (4:1, mol/mol) LUVs; cited from earlier work
Source text: Dathe and coauthors used POPC:LPS as model prokaryotic membranes to study peptide activity against E. coli and the role of LPS [20]. Previously, we have evaluated the membrane-permeability of P-113 and its derivatives by measuring the release of calcein from various phospholipid vesicles such as POPC:POPG (3:1, mol/mol) LUVs (mimic the anionic bacterial membrane) and POPC:LPS (4:1, mol/mol) LUVs (served as surrogates of Gram-negative bacterial membranes that contain LPS). […] Nal- ...

E. coli ATCC 25922 [6] = test: Time killing assay; format: cell-based, Escherichia coli; conditions: E. coli ATCC 25922, 5 × 10^5 CFU/mL, 1 × MIC, 0.5-24 h, 37 °C; triplicate
Protocol: as §1

E. coli ATCC 25922 [7] = test: Uptake of BODIPY-labeled vancomycin, confocal laser scanning microscopy; format: cell-based, Escherichia coli; conditions: E. coli 10^7 CFU/mL, 0.5 ×MIC peptide 30 min at 37 °C, then BODIPY-labeled vancomycin (2 μg/mL) 30 min; mean fluorescence intensity
Protocol: (§4) The fluorescence experiments were performed with slight modification as described previously. Briefly, the bacteria (10^7 CFU/mL) were incubated with 0.5 ×MIC antimicrobial peptides for 30 min and then treated with BODIPY-labeled vancomycin (2 μg/mL) for 30 min. Samples treated with BODIPY-labeled vancomycin only served as a control. After incubation, bacteria were centrifuged at 8000× g for 5 min, washed three times with PBS to remove unbinding fluorescence dye, and resuspended by PBS. The resuspended solution were loaded on the glass slides (Polysine™, Thermo Fisher Scientific, Waltham, MA, USA) and visualized under confocal laser scanning microscope (LSM 510 META, Carl Zeiss, Jena, Thüringen, Germany) equipped with a 64× oil objective lens (Carl Zeiss, Jena, Thüringen, Germany).

[8] = tested on: E. faecium BCRC 15B0132 (VRE); test: microbe, parasite or virus in culture; format: cell-based, Enterococcus faecium
Protocol: as §3

[9] = tested on: VRE, VISA, VRSA, and E. coli strains; test: microbe, parasite or virus in culture; format: cell-based; conditions: for MICs against these bacterial strains: 16 h; for MIC: Staphylococcus aureus
Protocol: as §3

E. coli ATCC 25922 [10] = test: microbe, parasite or virus in culture; format: cell-based, Escherichia coli
Protocol: as §3

[11] = tested on: Vancomycin-intermediate S. aureus 01 (VISA01); test: microbe, parasite or virus in culture; format: cell-based, Staphylococcus aureus
Protocol: as §3

[12] = tested on: Vancomycin-intermediate S. aureus 03 (VISA03); test: microbe, parasite or virus in culture; format: cell-based, Staphylococcus aureus
Protocol: as §3

[13] = tested on: Vancomycin-intermediate S. aureus 02 (VISA02); test: microbe, parasite or virus in culture; format: cell-based, Staphylococcus aureus
Protocol: as §3

E. faecium BCRC 15B0132 = test: Uptake of BODIPY-labeled vancomycin, confocal laser scanning microscopy; format: cell-based, Enterococcus faecium; conditions: VRE 10^7 CFU/mL, 0.5 ×MIC peptide 30 min at 37 °C, then BODIPY-labeled vancomycin (2 μg/mL) 30 min; mean fluorescence intensity
Protocol: as §4

[14] = tested on: VRE, VISA, VRSA and E. coli strains; test: Checkerboard assay, summary statements of the text over the strain panel; format: cell-based; conditions: peptide at ¼ ×MIC combined with vancomycin, all strains studied
Protocol: The synergistic effects of peptides in combination with vancomycin were investigated by checkerboard assay with slight modification. The peptides were fixed concentration at ¼ × MIC, then in combination with antibiotics at various concentrations in each well of 96-well plate. Then the peptide/antibiotic were mixed with inoculum (5 × 10^5 CFU/mL) and incubated at 37 °C for 16 h. The fractional inhibitory concentration (FIC) index was calculated as follows: FIC index = (MIC of drug A in combination/MIC of drug A alone) + (MIC of drug B in combination/MIC of drug B alone). An FIC index of ≤ 0.5 was defined as synergy, indifference was defined as an FIC index of 0.5 < FICI ≤ 4, antagonism was defined as an FIC index of > 4. The experiments were performed in triplicate.

[15] = VRSA01 (induced from VISA01 by serial passage), CLSI broth microdilution, TSB, 5 × 10^5 CFU/mL, 37 °C, triplicate
[16] = VRSA02 (induced from VISA02 by serial passage), CLSI broth microdilution, TSB, 5 × 10^5 CFU/mL, 37 °C, triplicate
[17] = VRSA03 (induced from VISA03 by serial passage), CLSI broth microdilution, TSB, 5 × 10^5 CFU/mL, 37 °C, triplicate
[18] = Vancomycin-intermediate 01 (VISA01, 16 h)
[19] = Vancomycin-intermediate 03 (VISA03, 16 h)
[20] = Vancomycin-intermediate 02 (VISA02, 16 h)

Row | SMILES | killing kinetics [1] | MIC [2, 15] [µg/mL] | MIC [3, 16] [µg/mL] | MIC [4, 17] [µg/mL] | calcein leakage from LUVs [5] | killing kinetics (E. coli ATCC 25922 [6]) | entry of BODIPY-labeled vancomycin into the bacteria (rank order) (E. coli ATCC 25922 [7]) | MIC ([8]; BCRC 15, 16 h) [µg/mL] | MICs against these bacterial strains [9] [µg/mL] | MIC (E. coli ATCC 25922 [10]; ATCC 25922, 16 h) [µg/mL] | MIC [11, 18] [µg/mL] | MIC [12, 19] [µg/mL] | MIC [13, 20] [µg/mL] | entry of BODIPY-labeled vancomycin into the bacteria (rank order) (E. faecium BCRC 15B0132) | synergy with vancomycin (interpretation of FICI) [14] | other results
1 | CC(=O)N[C@@H](C)C(=O)N[C@@H](CCCCN)C(=O)N[C@@H](CCCNC(=N)N)C(=O)N[C@@H](Cc1c[nH]cn1)C(=O)N[C@@H](Cc1c[nH]cn1)C(=O)NCC(=O)N[C@@H](Cc1ccc(O)cc1)C(=O)N[C@@H](CCCCN)C(=O)N[C@@H](CCCNC(=N)N)C(=O)N[C@@H](CCCCN)C(=O)N[C@@H](Cc1ccccc1)C(=O)N[C@@H](Cc1c[nH]cn1)C(N)=O [P-113] (Ac-AKRHHGYKRKFH-NH2) | slower or limited killing kinetics | >64 | >64 | >64 | only weak abilities in causing calcein leakage | limited bactericidal activity | Bip-P-113 > Nal-P-113 > Dip-P-113 > Phe-P-113 = P-113 | >64 | > 64 | >64 | >64 | >64 | >64 | Bip-P-113 = Nal-P-113 > Dip-P-113 > Phe-P-113 = P-113 | no synergy | –
2 | CC(=O)N[C@@H](C)C(=O)N[C@@H](CCCCN)C(=O)N[C@@H](CCCNC(=N)N)C(=O)N[C@@H](Cc1ccccc1)C(=O)N[C@@H](Cc1ccccc1)C(=O)NCC(=O)N[C@@H](Cc1ccc(O)cc1)C(=O)N[C@@H](CCCCN)C(=O)N[C@@H](CCCNC(=N)N)C(=O)N[C@@H](CCCCN)C(=O)N[C@@H](Cc1ccccc1)C(=O)N[C@@H](Cc1ccccc1)C(N)=O [Phe-P-113] (Ac-AKRFFGYKRKFF-NH2) | slower or limited killing kinetics | >64 | >64 | >64 | only weak abilities in causing calcein leakage | limited bactericidal activity | Bip-P-113 > Nal-P-113 > Dip-P-113 > Phe-P-113 = P-113 | >64 | > 64 | >64 | >64 | >64 | >64 | Bip-P-113 = Nal-P-113 > Dip-P-113 > Phe-P-113 = P-113 | no synergy | –
3 | CN[C@H](CC(C)C)C(=O)N[C@H]1C(=O)N[C@@H](CC(N)=O)C(=O)N[C@H]2C(=O)N[C@H]3C(=O)N[C@H](C(=O)N[C@H](C(=O)O)c4cc(O)cc(O)c4-c4cc3ccc4O)[C@H](O)c3ccc(c(Cl)c3)Oc3cc2cc(c3O[C@@H]2O[C@H](CO)[C@@H](O)[C@H](O)[C@H]2O[C@H]2C[C@](C)(N)[C@H](O)[C@H](C)O2)Oc2ccc(cc2Cl)[C@H]1O [Vancomycin] | slower or limited killing kinetics | – | – | – | – | limited bactericidal activity | – | – | – | – | – | – | – | – | – | MIC ([2]; Staphylococcus aureus): 32 µg/mL (≈ 22.1 µM); MIC ([3]; Staphylococcus aureus): 32 µg/mL (≈ 22.1 µM); MIC ([4]; Staphylococcus aureus): 32 µg/mL (≈ 22.1 µM); MIC ([8]; E. faecium BCRC 15B0132 (VRE), CLSI broth microdilution, TSB, 5 × 10^5 CFU/mL, 16 h, 37 °C, OD600, 90% growth inhibition, triplicate): 64 µg/mL (≈ 44.2 µM); MIC ([8]; Enterococcus faecium, VRE, 16 h): 64 µg/mL (≈ 44.2 µM); MIC ([9]; read-out: MIC against VISA strains): 4 µg/mL (≈ 2.76 µM); MIC ([9]; read-out: MIC against VRSA strains): 32 µg/mL (≈ 22.1 µM); MIC (E. coli ATCC 25922 [10]; E. coli ATCC 25922, CLSI broth microdilution, MHB, 5 × 10^5 CFU/mL, 16 h, 37 °C, OD600, 90% growth inhibition, triplicate): > 64 µg/mL; MIC (E. coli ATCC 25922 [10]; Escherichia coli, ATCC25922, 16 h): > 64 µg/mL; MIC ([11]; Staphylococcus aureus, 16 h): 4 µg/mL (≈ 2.76 µM); MIC ([12]; Staphylococcus aureus, 16 h): 4 µg/mL (≈ 2.76 µM); MIC ([13]; Staphylococcus aureus, 16 h): 4 µg/mL (≈ 2.76 µM)

— PMC7369893, “Antimicrobial Peptides Display Strong Synergy with Vancomycin Against Vancomycin-Resistant E. faecium, S. aureus, and Wild-Type E. coli” (International Journal of Molecular Sciences, 2020)
